System: 242566-281-R-J2-PDC complex spheroid viability
Experiment: Anticancer human tumor 242566-281-R-J2-PDC patient-derived pancreatic carcinoma cell line growth inhibition [CLK]
Settings: for IC50: curve of first compound; for viability, T/C: stronger effect = lower value
In short: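 Multi-cell-type spheroids combined patient-derived tumor cells with HUVEC endothelial cells and human mesenchymal stem cells. Paired agents were dosed in half-log steps down from about clinical Cmax, or from 10 microM where Cmax was unknown.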

[1] = second compound 0.0316 µM, first compound 0.0316 µM
[2] = second compound 0.0316 µM, first compound 0.1 µM
[3] = second compound 0.0316 µM, first compound 0.316 µM
[4] = second compound 0.0316 µM, first compound 1 µM
[5] = second compound 0.0316 µM, first compound 3.16 µM
[6] = second compound 0.0316 µM, first compound 10 µM
[7] = second compound 0.1 µM, first compound 0.0316 µM
[8] = second compound 0.1 µM, first compound 0.1 µM
[9] = second compound 0.1 µM, first compound 0.316 µM
[10] = second compound 0.1 µM, first compound 1 µM
[11] = second compound 0.1 µM, first compound 3.16 µM
[12] = second compound 0.1 µM, first compound 10 µM
[13] = second compound 0.316 µM, first compound 0.0316 µM
[14] = second compound 0.316 µM, first compound 0.1 µM
[15] = second compound 0.316 µM, first compound 0.316 µM
[16] = second compound 0.316 µM, first compound 1 µM
[17] = second compound 0.316 µM, first compound 3.16 µM
[18] = second compound 0.316 µM, first compound 10 µM
[19] = second compound 1 µM, first compound 0.0316 µM
[20] = second compound 1 µM, first compound 0.1 µM
[21] = second compound 1 µM, first compound 0.316 µM
[22] = second compound 1 µM, first compound 1 µM
[23] = second compound 1 µM, first compound 3.16 µM
[24] = second compound 1 µM, first compound 10 µM
[25] = second compound 3.16 µM, first compound 0.0316 µM
[26] = second compound 3.16 µM, first compound 0.1 µM
[27] = second compound 3.16 µM, first compound 0.316 µM
[28] = second compound 3.16 µM, first compound 1 µM
[29] = second compound 3.16 µM, first compound 3.16 µM
[30] = second compound 3.16 µM, first compound 10 µM
[31] = second compound 10 µM, first compound 0.0316 µM
[32] = second compound 10 µM, first compound 0.1 µM
[33] = second compound 10 µM, first compound 0.316 µM
[34] = second compound 10 µM, first compound 1 µM
[35] = second compound 10 µM, first compound 3.16 µM
[36] = second compound 10 µM, first compound 10 µM
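Also: spheroids exposed to compounds for 7 days before readout.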
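For viability, T/C in this document: 100% = DMSO vehicle control wells.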

Work on `CC(C)CC(NC(=O)C(Cc1ccccc1)NC(=O)c1cnccn1)B(O)O` (stereo unspecified) + CN1CCN(c2cc(C(=O)Nc3cc4cc(-c5cnn(C)c5)ccc4cn3)ccn2)CC1 yielded an IC50 (second compound 0.0316 µM) of 2.08 nM, an IC50 (second compound 0.1 µM) of 1.98 nM and an IC50 (second compound 0.316 µM) of under 0.949 nM. The IC50 (second compound 1 µM) was under 0.949 nM, the IC50 (second compound 3.16 µM) was under 0.949 nM and the IC50 (second compound 10 µM) was under 0.949 nM. It also gave a viability, T/C (second compound 0.0316 µM, first compound 0.000949 µM) of 103%, a viability, T/C (second compound 0.0316 µM, first compound 0.003 µM) of 25.5% and a viability, T/C (second compound 0.0316 µM, first compound 0.00949 µM) of 1.28%. It also gave a viability, T/C (second compound 0.0316 µM, first compound 0.03 µM) of 0.43%, a viability, T/C (second compound 0.0316 µM, first compound 0.0949 µM) of 0.27% and a viability, T/C (second compound 0.0316 µM, first compound 0.3 µM) of 0.23%. For the same compound, the viability, T/C (second compound 0.1 µM, first compound 0.000949 µM) was 98.8%, the viability, T/C (second compound 0.1 µM, first compound 0.003 µM) was 22.7% and the viability, T/C (second compound 0.1 µM, first compound 0.00949 µM) was 0.52%. It also gave a viability, T/C (second compound 0.1 µM, first compound 0.03 µM) of 0.43%, a viability, T/C (second compound 0.1 µM, first compound 0.0949 µM) of 0.39% and a viability, T/C (second compound 0.1 µM, first compound 0.3 µM) of 0.27%. It also gave a viability, T/C (second compound 0.316 µM, first compound 0.000949 µM) of 26.7%, a viability, T/C (second compound 0.316 µM, first compound 0.003 µM) of 2.24% and a viability, T/C (second compound 0.316 µM, first compound 0.00949 µM) of 0.29%. It also gave a viability, T/C (second compound 0.316 µM, first compound 0.03 µM) of 0.28%, a viability, T/C (second compound 0.316 µM, first compound 0.0949 µM) of 0.29% and a viability, T/C (second compound 0.316 µM, first compound 0.3 µM) of 0.51%. The viability, T/C (second compound 1 µM, first compound 0.000949 µM) was 5.2%, the viability, T/C (second compound 1 µM, first compound 0.003 µM) was 1.12% and the viability, T/C (second compound 1 µM, first compound 0.00949 µM) was 0.43%. The viability, T/C (second compound 1 µM, first compound 0.03 µM) was 0.31%, the viability, T/C (second compound 1 µM, first compound 0.0949 µM) was 0.26% and the viability, T/C (second compound 1 µM, first compound 0.3 µM) was 0.4%. For the same compound, the viability, T/C (second compound 3.16 µM, first compound 0.000949 µM) was 7.89%, the viability, T/C (second compound 3.16 µM, first compound 0.003 µM) was 1.95% and the viability, T/C (second compound 3.16 µM, first compound 0.00949 µM) was 0.39%. The viability, T/C (second compound 3.16 µM, first compound 0.03 µM) was 0.2%, the viability, T/C (second compound 3.16 µM, first compound 0.0949 µM) was 0.38% and the viability, T/C (second compound 3.16 µM, first compound 0.3 µM) was 0.8%. The viability, T/C (second compound 10 µM, first compound 0.000949 µM) was 1.93%, the viability, T/C (second compound 10 µM, first compound 0.003 µM) was 1.11% and the viability, T/C (second compound 10 µM, first compound 0.00949 µM) was 0.3%. For the same compound, the viability, T/C (second compound 10 µM, first compound 0.03 µM) was 0.44%, the viability, T/C (second compound 10 µM, first compound 0.0949 µM) was 0.26% and the viability, T/C (second compound 10 µM, first compound 0.3 µM) was 0.34%.

For `CC1COCCN1c1cc(C2(S(C)(=N)=O)CC2)nc(-c2ccnc3[nH]ccc23)n1` (stereo unspecified) + CN1CCN(c2cc(C(=O)Nc3cc4cc(-c5cnn(C)c5)ccc4cn3)ccn2)CC1, the IC50 (second compound 0.0316 µM) was 6190 nM, the IC50 (second compound 0.1 µM) was 4500 nM and the IC50 (second compound 0.316 µM) was under 31.6 nM. It also gave an IC50 (second compound 1 µM) of under 31.6 nM, an IC50 (second compound 3.16 µM) of under 31.6 nM and an IC50 (second compound 10 µM) of under 31.6 nM. For the same compound, the viability, T/C [1] was 119%, the viability, T/C [2] was 103% and the viability, T/C [3] was 97%. For the same compound, the viability, T/C [4] was 104%, the viability, T/C [5] was 73.8% and the viability, T/C [6] was 31.6%. For the same compound, the viability, T/C [7] was 103%, the viability, T/C [8] was 97.8% and the viability, T/C [9] was 97.3%. It also gave a viability, T/C [10] of 83.1%, a viability, T/C [11] of 62.6% and a viability, T/C [12] of 22.6%. It also gave a viability, T/C [13] of 36.3%, a viability, T/C [14] of 28.3% and a viability, T/C [15] of 31.2%. For the same compound, the viability, T/C [16] was 20.4%, the viability, T/C [17] was 17.5% and the viability, T/C [18] was 8.72%. The viability, T/C [19] was 4.95%, the viability, T/C [20] was 4.97% and the viability, T/C [21] was 4.82%. It also gave a viability, T/C [22] of 5.18%, a viability, T/C [23] of 5.87% and a viability, T/C [24] of 6.94%. It also gave a viability, T/C [25] of 7.02%, a viability, T/C [26] of 7.62% and a viability, T/C [27] of 8.37%. The viability, T/C [28] was 7.12%, the viability, T/C [29] was 8.01% and the viability, T/C [30] was 9.37%. The viability, T/C [31] was 2.02%, the viability, T/C [32] was 1.85% and the viability, T/C [33] was 2.1%. For the same compound, the viability, T/C [34] was 1.7%, the viability, T/C [35] was 1.8% and the viability, T/C [36] was 1.35%.

With `O=C(c1cc(Cc2n[nH]c(=O)c3ccccc23)ccc1F)N1CCN(C(=O)C2CC2)CC1` + CN1CCN(c2cc(C(=O)Nc3cc4cc(-c5cnn(C)c5)ccc4cn3)ccn2)CC1 the IC50 (second compound 0.0316 µM) was over 10000 nM, the IC50 (second compound 0.1 µM) was over 10000 nM and the IC50 (second compound 0.316 µM) was under 31.6 nM. The IC50 (second compound 1 µM) was under 31.6 nM, the IC50 (second compound 3.16 µM) was under 31.6 nM and the IC50 (second compound 10 µM) was under 31.6 nM. For the same compound, the viability, T/C [1] was 108%, the viability, T/C [2] was 98% and the viability, T/C [3] was 94.9%. It also gave a viability, T/C [4] of 95.3%, a viability, T/C [5] of 89.6% and a viability, T/C [6] of 80.3%. The viability, T/C [7] was 96.8%, the viability, T/C [8] was 96.9% and the viability, T/C [9] was 79.1%. The viability, T/C [10] was 85.6%, the viability, T/C [11] was 88.3% and the viability, T/C [12] was 62.8%. For the same compound, the viability, T/C [13] was 33.5%, the viability, T/C [14] was 34.3% and the viability, T/C [15] was 29.7%. The viability, T/C [16] was 31.1%, the viability, T/C [17] was 29.2% and the viability, T/C [18] was 23.2%. The viability, T/C [19] was 5.93%, the viability, T/C [20] was 3.31% and the viability, T/C [21] was 4.81%. For the same compound, the viability, T/C [22] was 4.43%, the viability, T/C [23] was 5.12% and the viability, T/C [24] was 5.59%. For the same compound, the viability, T/C [25] was 7.36%, the viability, T/C [26] was 7.02% and the viability, T/C [27] was 6.98%. It also gave a viability, T/C [28] of 7.16%, a viability, T/C [29] of 7.79% and a viability, T/C [30] of 10.4%. It also gave a viability, T/C [31] of 1.95%, a viability, T/C [32] of 2.1% and a viability, T/C [33] of 1.53%. The viability, T/C [34] was 2.95%, the viability, T/C [35] was 2.41% and the viability, T/C [36] was 1.71%.
